The target in the assay is T1, human H-PGDS (Homo sapiens, UniProt O60760).
T1 construct: Full length human H-PGDS cDNA (Invitrogen Ultimate ORF IOH13026) was amplified by PCR; 6-His (N); TEV protease cleavage site (N); made in house; host or cells: E. coli BL21 (DE3*) for H-PGDS; Sf9 insect cells (baculovirus) for COX-2
Put plainly: H-PGDS RapidFire high throughput mass spectrometry assay. It is filed as biochemical. The following applies: inhibition of conversion of PGH2 to PGD2 by H-PGDS; mean pIC50; read-out: Potency Range (mean pIC50) (converted). As for the experimental part: H-PGDS RapidFire™ High Throughput Mass Spectrometry Assay
The H-PGDS RapidFire™ mass spectrometric assay monitors conversion of prostaglandin H2 (PGH2) to prostaglandin D2 (PGD2) by haematopoietic prostaglandin D synthase (H-PGDS). In the assay format described here, the substrate (PGH2) is formed in situ by the action of cyclooxygenase-2 on arachidonic acid. This first step is set up to be fast, and generates a burst of PGH2 at ˜10 μM. The PGH2 is then further converted to PGD2 by the H-PGDS enzyme. […] Plates are then read on the RapidFire™ high throughput solid phase extraction system (Agilent) which incorporates a solid phase extraction step coupled to a triple quadrupole mass spectrometer (AB SCIEX). Relative levels of PGD2 and PGF2α, which acts as a surrogate for substrate, are measured and a percent conversion calculated. Inhibitors are characterised as compounds which lower the conversion of PGH2 to PGD2.
Full length human H-PGDS cDNA (Invitrogen Ultimate ORF IOH13026) was amplified by PCR with the addition of a 5′ 6-His tag and TEV protease cleavage site. The PCR product was digested with NdeI and XhoI and ligated into pET22b+ (Merck Novagen®). Expression was carried out in E. coli strain BL21 (DE3*) using auto-induction Overnight Express™ Instant TB medium (Merck Novagen®) supplemented with 1% glycerol. The culture was first grown at 37° C. and the temperature was reduced to 25° C. when OD600 reached 2.0. Cells were harvested by centrifugation after a further 18 hours. 10 g of E. coli cell pellet was suspended to a total volume of 80 mL in lysis buffer (20 mM Tris-Cl pH 7.5, 300 mM NaCl, 20 mM imidazole, 5 mM p-mercaptoethanol, 10% glycerol). 1 mg/mL protease inhibitors (Protease Inhibitor Cocktail Set III, Merck Calbiochem®) and 1 mg/mL lysozyme were added to the cell suspension. The suspension was then sonicated for 5 min (UltraSonic Processor VCX 750, Cole-Parmer Instrument Co.) with a micro probe (50% amplitude, 10 sec on/off) and then centrifuged at 100,000 g for 90 minutes (at 4° C.). The supernatant was loaded onto a Ni-NTA HiTrap column (5 mL, GE Healthcare, pre-equilibrated in lysis buffer). The column was washed with 10 column volumes of lysis buffer and eluted with lysis buffer containing 500 mM imidazole. The pooled protein peak fractions were concentrated using a 10 kDa centrifugal filter at 3500 g and 4° C. (Amicon Ultra-15 centrifugal filter unit with Ultracel-10 membrane from Millipore). Further purification of the concentrated protein was carried out using gel filtration chromatography on a HiLoad 26/600 Superdex 75 preparative grade column (GE Healthcare Life Sciences) using 50 mM Tris pH 7.5, 50 mM NaCl, 1 mM dithiothreitol, 1 mM MgCl2. Fractions containing the protein were pooled, concentrated as described above, and stored at −80° C.
The full length human COX-2 gene (accession number L15326) was amplified by PCR to generate an EcoRI—HindIII fragment containing an in-frame FLAG tag. This was subcloned into pFastBac 1 (Invitrogen). The COX-2 FLAG plasmid was recombined into the baculovirus genome according to the BAC-to-BAC protocol described by Invitrogen. Transfection into Spodoptera frugiperda (Sf9) insect cells was performed using Cellfectin (Invitrogen), according to the manufacturer's protocol. Super Sf9 cells were cultured in EX420 media (SAFC Biosciences) to a density of approximately 1.5×10^6 cells/mL within a wave bioreactor. Recombinant virus was added at a Multiplicity of Infection (MOI) of 5 and the culture was allowed to continue for 3 days. Cells were harvested using a continuous feed centrifuge run at 2500 g at a rate of approximately 2 L/min with cooling. The resultant cell slurry was re-centrifuged in pots (2500 g, 20 min, 4° C.) and the cell paste was stored at −80° C. […]

T1 sequence (O60760 whole entry): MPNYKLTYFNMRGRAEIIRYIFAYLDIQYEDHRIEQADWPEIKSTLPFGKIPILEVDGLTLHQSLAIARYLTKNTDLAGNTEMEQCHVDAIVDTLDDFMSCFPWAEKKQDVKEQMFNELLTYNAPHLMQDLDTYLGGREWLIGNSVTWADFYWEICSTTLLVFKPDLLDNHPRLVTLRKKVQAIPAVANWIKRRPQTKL

Turning to `O=C(N[C@H]1CCNC1=O)c1cnc(-c2cc(F)cc(Cl)c2)s1` [Example 6, (S)-2-(3-Chloro-5-fluorophenyl)-N-(2-oxopyrrolidin-3-yl)thiazole-5-carboxamide], the IC50 is 1.02 to 10 nM.
With `O=C(N[C@H]1CCNC1=O)c1cnc(-c2cc(Cl)ccc2F)s1` [Example 7, (S)-2-(5-Chloro-2-fluorophenyl)-N-(2-oxopyrrolidin-3-yl)thiazole-5-carboxamide] the figure was 10.2 to 100 nM; with `O=C(N[C@H]1CCNC1=O)c1cnc(-c2cccc(Cl)c2F)s1` [Example 8, (S)-2-(3-Chloro-2-fluorophenyl)-N-(2-oxopyrrolidin-3-yl)thiazole-5-carboxamide], 10.2 to 100 nM; with `O=C(N[C@H]1CCNC1=O)c1cnc(-c2cc(Cl)cc(Cl)c2)s1` [Example 9, (S)-2-(3,5-Dichlorophenyl)-N-(2-oxopyrrolidin-3-yl)thiazole-5-carboxamide], 1.02 to 10 nM.
Next, `O=C(N[C@H]1CCNC1=O)c1cnc(-c2cccc(C(F)F)c2)s1` [Example 10, (S)-2-(3-(Difluoromethyl)phenyl)-N-(2-oxopyrrolidin-3-yl)thiazole-5-carboxamide]: 10.2 to 100 nM; `C[C@@H]1CNC(=O)[C@H]1NC(=O)c1cnc(-c2cc(F)cc(Cl)c2)s1` [Example 11, 2-(3-Chloro-5-fluorophenyl)-N-((3S,4R)-4-methyl-2-oxopyrrolidin-3-yl)thiazole-5-carboxamide]: 1.02 to 10 nM.
With `O=C(N[C@H]1CCNC1=O)c1cnc(-c2cc(F)cc(C(F)F)c2)s1` [Example 12, (S)-2-(3-(Difluoromethyl)-5-fluorophenyl)-N-(2-oxopyrrolidin-3-yl)thiazole-5-carboxamide] the figure was 1.02 to 10 nM.
For the compound `C[C@@H]1CNC(=O)[C@H]1NC(=O)c1cnc(-c2cc(F)cc(C(F)F)c2)s1` [Example 13, 2-(3-(Difluoromethyl)-5-fluorophenyl)-N-((3S,4R)-4-methyl-2-oxopyrrolidin-3-yl)thiazole-5-carboxamide], the IC50 was 1.02 to 10 nM.
With `NC(=O)CN1CC[C@H](NC(=O)c2cnc(-c3cc(F)cc(F)c3)s2)C1=O` [Example 17, (S)-N-(1-(2-Amino-2-oxoethyl)-2-oxopyrrolidin-3-yl)-2-(3,5-difluorophenyl)thiazole-5-carboxamide], the IC50 was 102 to 1000 nM.
Turning to `CC1(C)CNC(=O)[C@H]1NC(=O)c1cnc(-c2cc(F)cc(Cl)c2)s1` [Example 19, (S)-2-(3-Chloro-5-fluorophenyl)-N-(4,4-dimethyl-2-oxopyrrolidin-3-yl)thiazole-5-carboxamide], the IC50 is 10.2 to 100 nM.
Next, `O=C(N[C@H]1CC2(CC2)NC1=O)c1cnc(-c2cc(F)cc(Cl)c2)s1` [Example 21, (S)-2-(3-Chloro-5-fluorophenyl)-N-(5-oxo-4-azaspiro[2.4]heptan-6-yl)thiazole-5-carboxamide]: 1.02 to 10 nM; `O=C(N[C@@H]1CC2(CC2)NC1=O)c1cnc(-c2cc(F)cc(Cl)c2)s1` [Example 22, (R)-2-(3-Chloro-5-fluorophenyl)-N-(5-oxo-4-azaspiro[2.4]heptan-6-yl)thiazole-5-carboxamide]: 102 to 1000 nM.
For the compound `CCC1(CC)CNC(=O)[C@@H]1NC(=O)c1cnc(-c2cc(F)cc(Cl)c2)s1` [Example 24, (R)-2-(3-Chloro-5-fluorophenyl)-N-(4,4-diethyl-2-oxopyrrolidin-3-yl)thiazole-5-carboxamide], the IC50 is 1020 to 10000 nM.
In the case of `CCC1(CC)CNC(=O)[C@H]1NC(=O)c1cnc(-c2cc(F)cc(Cl)c2)s1` [Example 25, (S)-2-(3-Chloro-5-fluorophenyl)-N-(4,4-diethyl-2-oxopyrrolidin-3-yl)thiazole-5-carboxamide], the IC50 was 10.2 to 100 nM.
Consider `O=C(N[C@@H]1CCNC1=O)c1cnc(-c2cc(F)cc(Cl)c2)s1` [Example 26, (R)-2-(3-Chloro-5-fluorophenyl)-N-(2-oxopyrrolidin-3-yl)thiazole-5-carboxamide], for which the IC50 was 102 to 1000 nM.
`O=C(N[C@@H]1CC2(CCC2)NC1=O)c1cnc(-c2cc(F)cc(Cl)c2)s1` [Example 28, (R)-2-(3-Chloro-5-fluorophenyl)-N-(6-oxo-5-azaspiro[3.4]octan-7-yl)thiazole-5-carboxamide]: the IC50 is 102 to 1000 nM.
Turning to `O=C(N[C@H]1CC2(CCC2)NC1=O)c1cnc(-c2cc(F)cc(Cl)c2)s1` [Example 29, (S)-2-(3-Chloro-5-fluorophenyl)-N-(6-oxo-5-azaspiro[3.4]octan-7-yl)thiazole-5-carboxamide], the IC50 is 1.02 to 10 nM.
For `Cc1nc(-c2cccc(Cl)c2)sc1C(=O)N[C@H]1CCNC1=O` [Example 30, (S)-2-(3-Chlorophenyl)-4-methyl-N-(2-oxopyrrolidin-3-yl)thiazole-5-carboxamide], the IC50 is 10.2 to 100 nM.
For `Cc1cnn(-c2ncc(C(=O)N[C@H]3CCNC3=O)s2)c1` [Example 31, (S)-2-(4-Methyl-1H-pyrazol-1-yl)-N-(2-oxopyrrolidin-3-yl)thiazole-5-carboxamide], the IC50 is 1020 to 10000 nM.
Take `Cc1cn(-c2ncc(C(=O)N[C@H]3CCNC3=O)s2)cn1` [Example 32, (S)-2-(4-Methyl-1H-imidazol-1-yl)-N-(2-oxopyrrolidin-3-yl)thiazole-5-carboxamide]: the IC50 is 1020 to 10000 nM.
For `O=C(N[C@H]1CCNC1=O)c1cnc(-c2ccccc2)s1` [Example 33, (S)-N-(2-Oxopyrrolidin-3-yl)-2-phenylthiazole-5-carboxamide], the IC50 was 10.2 to 100 nM.
Next, `C[C@H]1[C@H](C)NC(=O)[C@@H]1NC(=O)c1cnc(-c2cc(F)cc(Cl)c2)s1` [Example 35, 2-(3-Chloro-5-fluorophenyl)-N-((3R,4S,5S)-4,5-dimethyl-2-oxopyrrolidin-3-yl)thiazole-5-carboxamide]: 102 to 1000 nM.
As for `C[C@H]1[C@H](NC(=O)c2cnc(-c3cc(F)cc(Cl)c3)s2)C(=O)N[C@@H]1C` [Example 36, 2-(3-Chloro-5-fluorophenyl)-N-((3S,4R,5R)-4,5-dimethyl-2-oxopyrrolidin-3-yl)thiazole-5-carboxamide], the IC50 is 10.2 to 100 nM.
For `O=C(N[C@H]1CCNC1=O)c1cnc(-c2cccc(Br)c2)s1` [Example 37, (S)-2-(3-Bromophenyl)-N-(2-oxopyrrolidin-3-yl)thiazole-5-carboxamide], the IC50 is 10.2 to 100 nM.
Consider `O=C(N[C@H]1CCNC1=O)c1cnc(-c2ccncc2)s1` [Example 38, (S)-N-(2-Oxopyrrolidin-3-yl)-2-(pyridin-4-yl)thiazole-5-carboxamide], for which the IC50 is 1020 to 10000 nM.
Next, `O=C(N[C@H]1CCNC1=O)c1cnc(-c2ccccn2)s1` [Example 39, (S)-N-(2-Oxopyrrolidin-3-yl)-2-(pyridin-2-yl)thiazole-5-carboxamide]: 102 to 1000 nM.
As to `O=C(N[C@H]1CCNC1=O)c1cnc(-c2cccnc2)s1` [Example 40, (S)-N-(2-Oxopyrrolidin-3-yl)-2-(pyridin-3-yl)thiazole-5-carboxamide], the IC50 was 102 to 1000 nM.
Regarding `C[C@H]1C[C@@H](NC(=O)c2cnc(-c3cc(F)cc(Cl)c3)s2)C(=O)N1` [Example 41, 2-(3-Chloro-5-fluorophenyl)-N-((3R,5S)-5-methyl-2-oxopyrrolidin-3-yl)thiazole-5-carboxamide], the IC50 was 10.2 to 100 nM.
With `Cc1ccnc(-c2ncc(C(=O)N[C@H]3CCNC3=O)s2)n1` [Example 42, (S)-2-(4-Methylpyrimidin-2-yl)-N-(2-oxopyrrolidin-3-yl)thiazole-5-carboxamide], the IC50 is 102 to 1000 nM.

Source of the values: US20220009918A1, “Chemical Compounds” (GlaxoSmithKline Intellectual Property Development Limited, priority 2018, published 2022).
